Data taken from patent US7637980B2, “Method of increasing photosynthesis in plants comprising an exposure thereof to lipochitooligosaccharides and compositions therefor” (McGill University, priority 1999, dated 2009).

What was measured:
Assay type in all cases: in vivo
soybean (cv Bayfield) = assay: Leaf area and shoot dry weight of soybean after LCO spray, greenhouse; conditions: seven days after treatment
Protocol: Soybean (cv Bayfield) seeds were surface sterilized with 2% sodium hypochlorite for 3-4 minutes, washed with several changes of sterile distilled water and germinated in plastic trays containing sterile vermiculite. Seedlings at the two-leaf stage, about seven days of planting, were transplanted into 15 cm plastic pots containing promix (Premier Brands Inc., New Rochelle, N.Y., USA). Pots were placed in a greenhouse maintained at 25±2° C. with a day/night cycle of 16/8 h. Plants were watered as required.
(§1) Concentrations of LCO (10^−6 M-10^−12 M) were made with distilled water containing 0.02% Tween 20. A control treatment, containing 0.02% Tween 20, but no LCO was also applied. Since the rates of growth and development differed among the plant species used in the experiments, spray treatment was conducted at different times after planting In general, the spray was applied when the plants were big enough to allow easy measurements of leaf photosynthetic rates. The following are the ages of the plants when the sprays were conducted: soybean 21 days after planting (DAP), corn 25 DAP, rice 45 DAP, melon (35 DAP) and canola 30 DAP. The plants were sprayed with LCO solutions until dripping. The sprays were applied with an atomizer (Nalgene, USA). Each plant required 2-3 mL of spray solution. Each treatment was replicated at least five times and organized on the green house bench in a randomized complete block design. Each experiment (with each crop species) was repeated at least twice.
(§2) Photosynthesis was recorded every 24 h using a Li-Cor 6400 portable photosynthesis system (Li-Cor Inc., Lincoln, Neb., USA) for 6 days. In the case of soybean the photosynthesis in the second nodal leaf from the top was recorded while in the other species used in the photosynthetic rate was measured for the top-most fully expanded leaf. Soybean plants were harvested after seven days of LCO treatment and dried at 80° C. for 48 h. Data were analyzed with the Statistical Analysis System (SAS Inc., N.C., USA). Percent increase in photosynthesis over the control was calculated.

[1] = test system: canola (Brassica napus cv Springfield); assay: Photosynthesis of canola after LCO spray, greenhouse
Protocol: (§3) Seeds of rice (Oryza sativa cv Cypress), canola (Brassica napus cv Springfield), corn (Zea mays cv Pioneer 3921) and melon (Cucumis melo cv Nova) were surface sterilized with 2% sodium hypochlorite for 3-4 min, washed with several changes of sterile distilled water and planted in plastic pots (15 cm dia) containing promix (Premier Brands Inc., New Rochelle, N.Y., USA).
as §1, §2

[2] = test system: melon (Cucumis melo cv Nova); assay: Photosynthesis of melon after LCO spray, greenhouse
Protocol: as §3, §1, §2

Grapes (cv De Chaunac) = assay: Photosynthesis of field-grown grape after LCO spray
Protocol: These experiments were conducted at the horticultural research facility of McGill University, Ste-Anne-de-Bellevue, Quebec, Canada during July 2000. LCO of different concentrations (10^−8, and 10^−10M) were prepared as described above. Branches of apple (cv Empire) and Grapes (cv De Chaunac) were sprayed with LCO and the photosynthesis was observed every 24 h for five days with a Li-Cor 6400 portable photosynthesis system (Li-Cor Inc., USA). Each treatment was applied to three branches from the same plant. Care was taken to ensure that the branches were on the same level and orientation. Part of each branch was sprayed with LCO and the remaining part served as a control. The control portion of the branch was sprayed with distilled water containing the same amount of Tween 20 as the LCO treatment solution. Observations were taken on 15 leaves per replicate for each treatment. For both apple and grape the entire procedure was repeated twice on two different plants.

corn (Pioneer 3921) = assay: Photosynthesis of field-grown corn after LCO spray
Protocol: Single row corn plots (Pioneer 3921) were established during the 1999 and 2000 cropping seasons. The rows were 75 cm apart and their was an average of 20 cm between plants. The plants were sprayed at 40 DAP. Photosynthetic rates were recorded each day for 5 days after spray application. However, multiple sprays of LCO on corn were not possible due to limitations of LCO supplies, and because only single row plots were used yields were not recorded. As with the indoor experiments, photosynthetic readings were taken every day for five days after the application of LCO. For soybean additional developmental and agronomic data were collected. The first harvest was conducted at 25 days after the first spray treatment. Five plants were harvested from each plot and the following growth variables were analyzed: plant height, number of branches, number of leaves, leaf area, number of flower clusters, number of pods, number of nodules, dry weights of leaves, stem and roots. The final harvest was conducted after physiological maturity of the plants (Fehr et al., 1971); at this time the remaining fifteen treated plants from each plot were harvested and data on number of branches, number of pods, number of seeds and grain yield per plant was collected.

[3] = test system: soybean (cv OAC Bayfield); assay: Photosynthesis of soybean under field conditions (1999)
Protocol: The soybean experiment was conducted at the Lods Agronomy Research Centre, McGill University, Macdonald Campus, Ste-Anne-de-Bellevue, Quebec, Canada during the period June to September, 1999. A randomized complete block design with three blocks was followed. The plot size was 2×4 m with a row to row spacing of 25 cm and 10 cm between plants within a row. Seeds of soybean (cv OAC Bayfield), treated with commercial Bradyrhizobium japonicum inoculant (Bios Agriculture Inc., Quebec, Canada) at the rate of 3 g per kilogram of seed, were hand planted.
At 25 days after planting twenty plants in each plot were randomly marked and sprayed until dripping with LCO solutions (10^−6, 10^−8 and 10^−10M) containing 0.02% Tween 20 with a hand sprayer. The plants on either side, within the row, of the marked plants were also sprayed. A second spray was carried out at flowering stage and a third spray at pod filling.
As with the indoor experiments, photosynthetic readings were taken every day for five days after the application of LCO. For soybean additional developmental and agronomic data were collected. The first harvest was conducted at 25 days after the first spray treatment. Five plants were harvested from each plot and the following growth variables were analyzed: plant height, number of branches, number of leaves, leaf area, number of flower clusters, number of pods, number of nodules, dry weights of leaves, stem and roots. The final harvest was conducted after physiological maturity of the plants (Fehr et al., 1971); at this time the remaining fifteen treated plants from each plot were harvested and data on number of branches, number of pods, number of seeds and grain yield per plant was collected.

Nod Bj V (C18:1, MeFeu) was tested, and the Leaf area (soybean (cv Bayfield); 10^−6 M) was 223.6 cm^2, the Shoot dry weight (soybean (cv Bayfield); 10^−6 M) was 1065.8 mg and the Leaf area (soybean (cv Bayfield); 10^−7 M) was 193.6 cm^2. It also gave a Shoot dry weight (soybean (cv Bayfield); 10^−7 M) of 1135.2 mg, a Leaf area (soybean (cv Bayfield); 10^−8 M) of 217.6 cm^2 and a Shoot dry weight (soybean (cv Bayfield); 10^−8 M) of 1095.7 mg. The Leaf area (soybean (cv Bayfield); 10^−9 M) was 194.3 cm^2, the Shoot dry weight (soybean (cv Bayfield); 10^−9 M) was 999.9 mg and the Leaf area (soybean (cv Bayfield); 10^−10 M) was 195.3 cm^2. The Shoot dry weight (soybean (cv Bayfield); 10^−10 M) was 1012.3 mg, the Leaf area (soybean (cv Bayfield); 10^−11 M) was 202.6 cm^2 and the Shoot dry weight (soybean (cv Bayfield); 10^−11 M) was 931.6 mg. The Leaf area (soybean (cv Bayfield); 10^−12 M) was 230.3 cm^2, the Shoot dry weight (soybean (cv Bayfield); 10^−12 M) was 1060.8 mg and the “shoot dry weights vs control plants” value (soybean (cv Bayfield); p<0.05) was “higher”. For the same substance, the “leaf areas vs control plants” value (soybean (cv Bayfield); p=0.09) was “only increased numerically”, the “intercellular CO2 concentration” value [1] was “unaffected” and the stomatal conductance [1] was “increases”. The transpiration [1] was “increases”, the increase in photosynthesis ([1]; in general) was 10-20% and the “intercellular CO2 concentration” value [2] was “unaffected”. The stomatal conductance [2] was “increases”, the transpiration [2] was “increases” and the increase in photosynthesis ([2]; in general) was 10-20%. The stomatal conductance (Grapes (cv De Chaunac); 10^−10 M, three days after treatment) was “increase”, the photosynthetic rates (Grapes (cv De Chaunac); greatest three days after treatment with 10^−10 M) was “increases” and the Ci (corn (Pioneer 3921); field grown plants) was “no such effect”. The “increase of photosynthetic rate, maximum” value (corn (Pioneer 3921); field, two days after treatment application) was “approximately 10%”, the stomatal conductance [3] was “increases” and the transpiration [3] was “increased”. For the same substance, the photosynthetic rate ([3]; 10^−6 M, day three) was 24 µmol m^−2 s^−1.
